Test results taken from ChEMBL document CHEMBL1629456, “ApoA-I mimetic peptides promote pre-β HDL formation in vivo causing remodeling of HDL and triglyceride accumulation at higher dose” (Bioorg Med Chem, 2010).
Where a SMILES comes first, the peptide text is derived from it. [ ]: non-standard residue; d: D form. Gly(oct-7-en-1-yl) = C=CCCCCCC[C@H](N)C(=O)O; Ala(5-hexenyl) = C=CCCCCC[C@H](N)C(=O)O

Molecular target: Phospholipid-transporting ATPase ABCA1 (Mus musculus, UniProt P41233)
Assay: Induction of ABCA1-mediated [3H]cholesterol efflux in mouse RAW 264.7 macrophages after 24 hrs

Chain of Phospholipid-transporting ATPase ABCA1 (P41233 whole entry): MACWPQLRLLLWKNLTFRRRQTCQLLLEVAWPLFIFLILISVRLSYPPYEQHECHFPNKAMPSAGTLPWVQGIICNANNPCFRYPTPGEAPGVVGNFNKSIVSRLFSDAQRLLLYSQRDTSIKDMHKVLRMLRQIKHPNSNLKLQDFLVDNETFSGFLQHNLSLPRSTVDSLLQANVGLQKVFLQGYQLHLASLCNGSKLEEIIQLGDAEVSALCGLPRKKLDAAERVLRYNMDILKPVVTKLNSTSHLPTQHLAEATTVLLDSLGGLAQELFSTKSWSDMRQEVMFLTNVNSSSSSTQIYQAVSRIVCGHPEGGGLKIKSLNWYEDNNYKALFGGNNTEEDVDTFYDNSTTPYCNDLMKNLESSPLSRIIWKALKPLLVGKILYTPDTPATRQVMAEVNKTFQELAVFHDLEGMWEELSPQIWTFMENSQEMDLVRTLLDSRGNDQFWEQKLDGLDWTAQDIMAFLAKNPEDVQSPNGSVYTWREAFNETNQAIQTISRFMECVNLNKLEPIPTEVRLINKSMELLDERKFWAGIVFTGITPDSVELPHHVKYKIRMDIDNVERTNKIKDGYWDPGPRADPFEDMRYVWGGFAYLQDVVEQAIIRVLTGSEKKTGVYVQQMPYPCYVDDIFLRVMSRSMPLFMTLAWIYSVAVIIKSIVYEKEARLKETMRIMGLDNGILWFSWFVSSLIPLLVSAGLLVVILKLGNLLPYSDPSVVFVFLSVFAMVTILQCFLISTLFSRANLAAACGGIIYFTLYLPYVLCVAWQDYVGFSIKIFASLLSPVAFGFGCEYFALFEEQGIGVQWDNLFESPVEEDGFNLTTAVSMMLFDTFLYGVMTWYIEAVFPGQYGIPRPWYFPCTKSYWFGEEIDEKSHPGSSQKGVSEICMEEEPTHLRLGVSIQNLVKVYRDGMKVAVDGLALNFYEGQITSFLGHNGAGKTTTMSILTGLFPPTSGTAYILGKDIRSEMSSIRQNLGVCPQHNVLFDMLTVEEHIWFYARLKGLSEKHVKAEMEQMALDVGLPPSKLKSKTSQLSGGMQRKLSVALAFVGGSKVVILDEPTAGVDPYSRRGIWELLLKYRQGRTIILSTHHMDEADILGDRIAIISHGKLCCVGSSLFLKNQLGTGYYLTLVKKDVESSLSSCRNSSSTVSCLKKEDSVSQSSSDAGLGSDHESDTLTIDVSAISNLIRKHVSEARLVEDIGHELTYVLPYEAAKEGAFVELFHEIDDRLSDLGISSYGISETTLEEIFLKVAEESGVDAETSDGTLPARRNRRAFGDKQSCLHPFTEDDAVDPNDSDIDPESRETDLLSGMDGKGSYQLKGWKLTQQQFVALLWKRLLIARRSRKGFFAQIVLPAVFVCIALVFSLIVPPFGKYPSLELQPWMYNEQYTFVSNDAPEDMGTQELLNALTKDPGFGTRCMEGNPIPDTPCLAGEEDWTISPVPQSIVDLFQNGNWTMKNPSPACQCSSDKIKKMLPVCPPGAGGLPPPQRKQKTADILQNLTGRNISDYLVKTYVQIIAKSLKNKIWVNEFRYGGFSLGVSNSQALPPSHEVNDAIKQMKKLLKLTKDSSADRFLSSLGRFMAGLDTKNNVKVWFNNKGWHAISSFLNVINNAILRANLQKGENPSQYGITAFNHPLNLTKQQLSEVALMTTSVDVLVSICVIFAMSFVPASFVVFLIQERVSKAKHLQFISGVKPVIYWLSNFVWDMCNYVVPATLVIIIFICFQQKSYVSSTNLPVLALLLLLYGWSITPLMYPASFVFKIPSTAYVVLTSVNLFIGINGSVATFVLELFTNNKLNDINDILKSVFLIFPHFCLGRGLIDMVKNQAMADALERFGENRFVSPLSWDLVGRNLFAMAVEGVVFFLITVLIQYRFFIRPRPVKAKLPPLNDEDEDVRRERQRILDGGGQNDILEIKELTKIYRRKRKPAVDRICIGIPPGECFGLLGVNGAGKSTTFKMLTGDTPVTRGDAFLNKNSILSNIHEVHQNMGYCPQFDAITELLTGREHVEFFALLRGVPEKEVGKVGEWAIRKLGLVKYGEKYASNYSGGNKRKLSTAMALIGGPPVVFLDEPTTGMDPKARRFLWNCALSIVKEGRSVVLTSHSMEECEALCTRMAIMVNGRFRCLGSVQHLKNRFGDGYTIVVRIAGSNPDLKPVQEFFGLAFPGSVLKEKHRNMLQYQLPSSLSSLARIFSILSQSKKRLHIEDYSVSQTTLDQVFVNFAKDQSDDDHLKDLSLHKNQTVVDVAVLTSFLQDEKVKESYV

Row | EC50 [µM] | SMILES
1 | 1.9 | C=CCCCCC[C@H](NC(=O)[C@H](CCC(=O)O)NC(=O)[C@H](CC(N)=O)NC(=O)[C@H](CC(C)C)NC(=O)[C@H](CCCCN)NC(=O)[C@H](CCC(=O)O)NC(=O)[C@H](CCCN=C(N)N)NC(=O)[C@H](CCCCCC=C)NC(=O)[C@H](CCC(=O)O)NC(=O)[C@H](CC(=O)O)NC(=O)[C@H](CC(C)C)NC(=O)[C@H](CCCCCC=C)NC(=O)[C@@H]1CCCN1C(C)=O)C(=O)N[C@@H](CC(C)C)C(=O)N[C@@H](CCC(=O)O)C(=O)N[C@@H](C)C(=O)N[C@@H](CC(C)C)C(=O)N[C@@H](CCCCN)C(=O)N[C@@H](CCC(N)=O)C(=O)N[C@@H](CCCCN)C(=O)N[C@@H](CC(C)C)C(=O)N[C@@H](CCCCN)C(N)=O (Ac-P[Ala(5-hexenyl)]LDE[Ala(5-hexenyl)]REKLNE[Ala(5-hexenyl)]LEALKQKLK-NH2)
2 | > 100 | C=CCCCCC[C@H](NC(=O)[C@H](CCC(=O)O)NC(=O)[C@H](CCC(=O)O)NC(=O)[C@H](CC(N)=O)NC(=O)[C@H](CC(C)C)NC(=O)[C@H](CCCCN)NC(=O)[C@H](CCC(=O)O)NC(=O)[C@H](CCCNC(=N)N)NC(=O)[C@H](Cc1ccccc1)NC(=O)[C@H](CCC(=O)O)NC(=O)[C@H](CC(=O)O)NC(=O)[C@H](CC(C)C)NC(=O)[C@@H](NC(=O)[C@@H]1CCCN1C(C)=O)C(C)C)C(=O)N[C@@H](CCC(=O)O)C(=O)N[C@@H](C)C(=O)N[C@@H](CC(C)C)C(=O)N[C@@H](CCCCN)C(=O)N[C@@H](CCC(N)=O)C(=O)N[C@@H](CCCCN)C(=O)N[C@@H](CC(C)C)C(=O)N[C@@H](CCCCN)C(N)=O
3 | > 100 | C=CCCCCC[C@H](NC(=O)[C@H](CCC(=O)O)NC(=O)[C@H](CCCN=C(N)N)NC(=O)[C@H](Cc1ccccc1)NC(=O)[C@H](CCC(=O)O)NC(=O)[C@H](CC(=O)O)NC(=O)[C@H](CC(C)C)NC(=O)[C@@H](NC(=O)[C@@H]1CCCN1C(C)=O)C(C)C)C(=O)N[C@@H](CC(C)C)C(=O)N[C@@H](CC(N)=O)C(=O)N[C@@H](CCC(=O)O)C(=O)N[C@@H](CCC(=O)O)C(=O)N[C@@H](CC(C)C)C(=O)N[C@@H](CCC(=O)O)C(=O)N[C@@H](C)C(=O)N[C@@H](CC(C)C)C(=O)N[C@@H](CCCCN)C(=O)N[C@@H](CCC(N)=O)C(=O)N[C@@H](CCCCN)C(=O)N[C@@H](CC(C)C)C(=O)N[C@@H](CCCCN)C(N)=O
4 | > 100 | C=CCCCC[C@H](NC(=O)[C@@H](NC(=O)[C@@H]1CCCN1C(C)=O)C(C)C)C(=O)N[C@@H](CC(=O)O)C(=O)N[C@@H](CCC(=O)O)C(=O)N[C@@H](Cc1ccccc1)C(=O)N[C@@H](CCCNC(=N)N)C(=O)N[C@@H](CCC(=O)O)C(=O)N[C@@H](CCCCN)C(=O)N[C@@H](CC(C)C)C(=O)N[C@@H](CC(N)=O)C(=O)N[C@@H](CCC(=O)O)C(=O)N[C@@H](CCC(=O)O)C(=O)N[C@@H](CC(C)C)C(=O)N[C@@H](CCC(=O)O)C(=O)N[C@@H](C)C(=O)N[C@@H](CC(C)C)C(=O)N[C@@H](CCCCN)C(=O)N[C@@H](CCC(N)=O)C(=O)N[C@@H](CCCCN)C(=O)N[C@@H](CC(C)C)C(=O)N[C@@H](CCCCN)C(N)=O
5 | > 100 | C=CCCCC[C@H](NC(=O)[C@H](CCCCN)NC(=O)[C@H](CCC(=O)O)NC(=O)[C@H](CCCN=C(N)N)NC(=O)[C@H](Cc1ccccc1)NC(=O)[C@H](CCC(=O)O)NC(=O)[C@H](CC(=O)O)NC(=O)[C@H](CC(C)C)NC(=O)[C@@H](NC(=O)[C@@H]1CCCN1C(C)=O)C(C)C)C(=O)N[C@@H](CC(N)=O)C(=O)N[C@@H](CCC(=O)O)C(=O)N[C@@H](CCC(=O)O)C(=O)N[C@@H](CC(C)C)C(=O)N[C@@H](CCC(=O)O)C(=O)N[C@@H](C)C(=O)N[C@@H](CC(C)C)C(=O)N[C@@H](CCCCN)C(=O)N[C@@H](CCC(N)=O)C(=O)N[C@@H](CCCCN)C(=O)N[C@@H](CC(C)C)C(=O)N[C@@H](CCCCN)C(N)=O
6 | > 100 | C=CCCCCC[C@H](NC(=O)[C@H](C)NC(=O)[C@H](CCC(=O)O)NC(=O)[C@H](CC(C)C)NC(=O)[C@H](CCC(=O)O)NC(=O)[C@H](CCC(=O)O)NC(=O)[C@H](CC(N)=O)NC(=O)[C@H](CC(C)C)NC(=O)[C@H](CCCCN)NC(=O)[C@H](CCC(=O)O)NC(=O)[C@H](CCCNC(=N)N)NC(=O)[C@H](Cc1ccccc1)NC(=O)[C@H](CCC(=O)O)NC(=O)[C@H](CC(=O)O)NC(=O)[C@H](CC(C)C)NC(=O)[C@@H](NC(=O)[C@@H]1CCCN1C(C)=O)C(C)C)C(=O)N[C@@H](CCCCN)C(=O)N[C@@H](CCC(N)=O)C(=O)N[C@@H](CCCCN)C(=O)N[C@@H](CC(C)C)C(=O)N[C@@H](CCCCN)C(N)=O
7 | > 100 | C=CCCCC[C@H](NC(=O)[C@H](CCC(=O)O)NC(=O)[C@H](CCC(=O)O)NC(=O)[C@H](CC(N)=O)NC(=O)[C@H](CC(C)C)NC(=O)[C@H](CCCCN)NC(=O)[C@H](CCC(=O)O)NC(=O)[C@H](CCCNC(=N)N)NC(=O)[C@H](Cc1ccccc1)NC(=O)[C@H](CCC(=O)O)NC(=O)[C@H](CC(=O)O)NC(=O)[C@H](CC(C)C)NC(=O)[C@@H](NC(=O)[C@@H]1CCCN1C(C)=O)C(C)C)C(=O)N[C@@H](CCC(=O)O)C(=O)N[C@@H](C)C(=O)N[C@@H](CC(C)C)C(=O)N[C@@H](CCCCN)C(=O)N[C@@H](CCC(N)=O)C(=O)N[C@@H](CCCCN)C(=O)N[C@@H](CC(C)C)C(=O)N[C@@H](CCCCN)C(N)=O
8 | > 100 | C=CCCCCC[C@H](NC(=O)[C@H](CCC(=O)O)NC(=O)[C@H](CC(=O)O)NC(=O)[C@H](CC(C)C)NC(=O)[C@@H](NC(=O)[C@@H]1CCCN1C(C)=O)C(C)C)C(=O)N[C@@H](CCCNC(=N)N)C(=O)N[C@@H](CCC(=O)O)C(=O)N[C@@H](CCCCN)C(=O)N[C@@H](CC(C)C)C(=O)N[C@@H](CC(N)=O)C(=O)N[C@@H](CCC(=O)O)C(=O)N[C@@H](CCC(=O)O)C(=O)N[C@@H](CC(C)C)C(=O)N[C@@H](CCC(=O)O)C(=O)N[C@@H](C)C(=O)N[C@@H](CC(C)C)C(=O)N[C@@H](CCCCN)C(=O)N[C@@H](CCC(N)=O)C(=O)N[C@@H](CCCCN)C(=O)N[C@@H](CC(C)C)C(=O)N[C@@H](CCCCN)C(N)=O
9 | > 100 | C=CCCCCC[C@@H](NC(=O)[C@H](CCCCN)NC(=O)[C@H](CCC(N)=O)NC(=O)[C@H](CCCCN)NC(=O)[C@H](CC(C)C)NC(=O)[C@H](C)NC(=O)[C@H](CCC(=O)O)NC(=O)[C@H](CC(C)C)NC(=O)[C@H](CCC(=O)O)NC(=O)[C@H](CCC(=O)O)NC(=O)[C@H](CC(N)=O)NC(=O)[C@H](CC(C)C)NC(=O)[C@H](CCCCN)NC(=O)[C@H](CCC(=O)O)NC(=O)[C@H](CCCNC(=N)N)NC(=O)[C@H](Cc1ccccc1)NC(=O)[C@H](CCC(=O)O)NC(=O)[C@H](CC(=O)O)NC(=O)[C@H](CC(C)C)NC(=O)[C@@H](NC(=O)[C@@H]1CCCN1C(C)=O)C(C)C)C(=O)N[C@@H](CCCCN)C(N)=O
10 | > 100 | C=CCCCCC[C@@H](NC(=O)[C@H](CCCCN)NC(=O)[C@H](CCC(=O)O)NC(=O)[C@H](CCCN=C(N)N)NC(=O)[C@H](Cc1ccccc1)NC(=O)[C@H](CCC(=O)O)NC(=O)[C@H](CC(=O)O)NC(=O)[C@H](CC(C)C)NC(=O)[C@@H](NC(=O)[C@@H]1CCCN1C(C)=O)C(C)C)C(=O)N[C@@H](CC(N)=O)C(=O)N[C@@H](CCC(=O)O)C(=O)N[C@@H](CCC(=O)O)C(=O)N[C@@H](CC(C)C)C(=O)N[C@@H](CCC(=O)O)C(=O)N[C@@H](C)C(=O)N[C@@H](CC(C)C)C(=O)N[C@@H](CCCCN)C(=O)N[C@@H](CCC(N)=O)C(=O)N[C@@H](CCCCN)C(=O)N[C@@H](CC(C)C)C(=O)N[C@@H](CCCCN)C(N)=O
11 | > 100 | C=CCCCC[C@@H](NC(=O)[C@H](CCCCN)NC(=O)[C@H](CCC(=O)O)NC(=O)[C@H](CCCNC(=N)N)NC(=O)[C@H](Cc1ccccc1)NC(=O)[C@H](CCC(=O)O)NC(=O)[C@H](CC(=O)O)NC(=O)[C@H](CC(C)C)NC(=O)[C@@H](NC(=O)[C@@H]1CCCN1C(C)=O)C(C)C)C(=O)N[C@@H](CC(N)=O)C(=O)N[C@@H](CCC(=O)O)C(=O)N[C@@H](CCC(=O)O)C(=O)N[C@@H](CC(C)C)C(=O)N[C@@H](CCC(=O)O)C(=O)N[C@@H](C)C(=O)N[C@@H](CC(C)C)C(=O)N[C@@H](CCCCN)C(=O)N[C@@H](CCC(N)=O)C(=O)N[C@@H](CCCCN)C(=O)N[C@@H](CC(C)C)C(=O)N[C@@H](CCCCN)C(N)=O
12 | 0.4 | C=CCCCCCC[C@H](NC(=O)[C@H](CCC(=O)O)NC(=O)[C@H](CC(N)=O)NC(=O)[C@H](CC(C)C)NC(=O)[C@H](CCCCN)NC(=O)[C@H](CCC(=O)O)NC(=O)[C@H](CCCN=C(N)N)NC(=O)[C@H](CCCCCCC=C)NC(=O)[C@H](CCC(=O)O)NC(=O)[C@H](CC(=O)O)NC(=O)[C@H](CC(C)C)NC(=O)[C@@H](NC(=O)[C@@H]1CCCN1C(C)=O)C(C)C)C(=O)N[C@@H](CC(C)C)C(=O)N[C@@H](CCC(=O)O)C(=O)N[C@@H](C)C(=O)N[C@@H](CC(C)C)C(=O)N[C@@H](CCCCN)C(=O)N[C@@H](CCC(N)=O)C(=O)N[C@@H](CCCCN)C(=O)N[C@@H](CC(C)C)C(=O)N[C@@H](CCCCN)C(N)=O (Ac-PVLDE[Gly(oct-7-en-1-yl)]REKLNE[Gly(oct-7-en-1-yl)]LEALKQKLK-NH2)
13 | > 100 | C=CCCCCC[C@@H](NC(=O)[C@H](CCC(=O)O)NC(=O)[C@H](CC(=O)O)NC(=O)[C@H](CC(C)C)NC(=O)[C@@H](NC(=O)[C@@H]1CCCN1C(C)=O)C(C)C)C(=O)N[C@@H](CCCNC(=N)N)C(=O)N[C@@H](CCC(=O)O)C(=O)N[C@@H](CCCCN)C(=O)N[C@@H](CC(C)C)C(=O)N[C@@H](CC(N)=O)C(=O)N[C@@H](CCC(=O)O)C(=O)N[C@@H](CCC(=O)O)C(=O)N[C@@H](CC(C)C)C(=O)N[C@@H](CCC(=O)O)C(=O)N[C@@H](C)C(=O)N[C@@H](CC(C)C)C(=O)N[C@@H](CCCCN)C(=O)N[C@@H](CCC(N)=O)C(=O)N[C@@H](CCCCN)C(=O)N[C@@H](CC(C)C)C(=O)N[C@@H](CCCCN)C(N)=O
14 | > 100 | C=CCCCCC[C@@H](NC(=O)[C@@H]1CCCN1C(C)=O)C(=O)N[C@@H](CC(C)C)C(=O)N[C@@H](CC(=O)O)C(=O)N[C@@H](CCC(=O)O)C(=O)N[C@@H](Cc1ccccc1)C(=O)N[C@@H](CCCNC(=N)N)C(=O)N[C@@H](CCC(=O)O)C(=O)N[C@@H](CCCCN)C(=O)N[C@@H](CC(C)C)C(=O)N[C@@H](CC(N)=O)C(=O)N[C@@H](CCC(=O)O)C(=O)N[C@@H](CCC(=O)O)C(=O)N[C@@H](CC(C)C)C(=O)N[C@@H](CCC(=O)O)C(=O)N[C@@H](C)C(=O)N[C@@H](CC(C)C)C(=O)N[C@@H](CCCCN)C(=O)N[C@@H](CCC(N)=O)C(=O)N[C@@H](CCCCN)C(=O)N[C@@H](CC(C)C)C(=O)N[C@@H](CCCCN)C(N)=O
